US8735439B2, “Chlorin e6-folic acid conjugate, preparation method thereof, and a pharmaceutical composition for the treatment of cancer comprising the same” (Diatech Korea Co., Ltd., priority 2009, dated 2014)

System: HeLa tumor cells
Test: Cytotoxicity (antiproliferative assay) in the absence of light exposure
Type: cell-based
Conditions: for number of HeLa cells: no light, 24 hours
Description: Cytotoxicity was analyzed, considering the intensity of proliferative processes in cells, photosensitizer concentration, and dose of optical power. For each point, 3 flasks with cell monolayer were used.
The monolayer culture of HeLa tumor cells was chosen and used as the cell.
The culture of HeLa tumor cells was grown in nutrient medium 199 or in nutrient medium containing hemohydrolyzate supplemented with 10% fetal bovine serum and […] of kanamycin. […]
Flasks with light-protective cover (dark cytotoxicity) were incubated at 37.5° C. for 1 hour. The cells were washed with Hank's solution 4 times. 2.0 ml of fresh nutrient medium were added, and the cells were irradiated at the temperature of melting ice for 5, 10, 15 or 20 mins by the light flux of a “METALAZ” laser medical device (wavelength: 627.8 nm, 578.2 or 510.6 nm) or “LD 680-2000” (wavelength: 670-690 nm), depending on the wavelength of maximum spectral absorption of the studied photosensitizer, at a dose of 40 J/cm^2. After 20-24 hours, the number of tumor cell was counted in Goriaev's chamber.

Substance: [γ-(6-aminohexyl)folic acid]-chlorin e6 [chlorin e6 conjugate]
- cell survival rate (Hela cells, 24 hr incubation, absence of light exposure): about 90%
- number of HeLa cells (photosensitizer conc. 1 (μm)): 102.1 percentage of the control
- number of HeLa cells (photosensitizer conc. 2.5 (μm)): 95.6 percentage of the control
- number of HeLa cells (photosensitizer conc. 5.0 (μm)): 94.1 percentage of the control
- number of HeLa cells (photosensitizer conc. 10.0 (μm)): 95.9 percentage of the control
- number of HeLa cells (photosensitizer conc. 20.0 (μm)): 89.0 percentage of the control
- number of HeLa cells (photosensitizer conc. 30.0 (μm)): 86.6 percentage of the control
